Assay results from the NIST ThermoML archive (doi:10.1016/j.tca.2012.05.023).

Assay: molar heat capacity at constant pressure
Conditions: 101.33 kPa, Crystal, Vacuum adiabatic calorimetry

O=C([O-])c1cnccn1.O=C([O-])c1cnccn1.O=C([O-])c1cnccn1.[Cr+3] [chromium(III) pyrazine-2-carboxylate]
Conditions	molar heat capacity at constant pressure [J/K/mol]
235 K	359.23
235.75 K	360.47
238.84 K	363.97
240 K	365.49
242.01 K	368.73
245 K	371.73
245.86 K	373.07
249.57 K	377.69
250 K	377.95
252.6 K	381.55
255 K	384.15
255.7 K	385.19
258.73 K	388.65
260 K	390.33
261.82 K	392.4
264.85 K	396.6
265 K	396.49
267.86 K	400.48
270 K	402.62
270.92 K	403.75
273.93 K	407.18
275 K	408.73
276.89 K	410.85
279.85 K	414.48
280 K	414.81
282.87 K	418.25
285 K	420.87
285.83 K	421.97
288.79 K	425.74
290 K	426.91
291.89 K	428.76
294.92 K	432.73
295 K	432.92
297.94 K	436.5
298.15 K	436.69
300 K	438.9
300.28 K	439.48
302.83 K	442.7
305 K	444.86
305.99 K	446.12
309.09 K	450.09
310 K	450.79
312.18 K	454.16
315 K	456.7
315.35 K	457.58
318.38 K	461.21
320 K	462.57
321.54 K	464.38
324.64 K	468.15
325 K	468.42
327.67 K	471.32
330 K	474.25
330.76 K	475.09
333.79 K	478.57
335 K	480.04
336.88 K	481.84
339.91 K	485.31
340 K	485.8
343.01 K	488.64
345 K	491.54
345.97 K	491.76
349.05 K	495.84
350 K	497.25
352.03 K	499.11
355 K	502.92
355.1 K	502.61
358.14 K	506.45
360 K	508.57
361.31 K	510.02
364.47 K	513.54
365 K	514.18
367.57 K	517.31
370 K	519.77
370.74 K	520.43
373.88 K	524.09
375 K	525.32
377.03 K	527.59
380 K	530.85
380.17 K	530.85
383.23 K	534.71
385 K	536.34
386.16 K	537.95
389.19 K	541.27
390 K	541.8
392.45 K	544.56
395 K	547.22
395.47 K	547.81
400 K	552.62
